Data taken from ChEMBL document CHEMBL3352420, “Discovery of 2-pyridylureas as glucokinase activators” (J Med Chem, 2014).

Legend:
[1] = biological target: T1, Hexokinase-4 (Homo sapiens, UniProt P35557); assay: Activation of purified human glucokinase isoform 3 (13 to 466 aa) using 5 mM glucose by spectrophotometry in presence of NAD+ and glucose 6-phosphate dehydrogenase in presence of 4% HSA
T1 sequence (P35557 whole entry): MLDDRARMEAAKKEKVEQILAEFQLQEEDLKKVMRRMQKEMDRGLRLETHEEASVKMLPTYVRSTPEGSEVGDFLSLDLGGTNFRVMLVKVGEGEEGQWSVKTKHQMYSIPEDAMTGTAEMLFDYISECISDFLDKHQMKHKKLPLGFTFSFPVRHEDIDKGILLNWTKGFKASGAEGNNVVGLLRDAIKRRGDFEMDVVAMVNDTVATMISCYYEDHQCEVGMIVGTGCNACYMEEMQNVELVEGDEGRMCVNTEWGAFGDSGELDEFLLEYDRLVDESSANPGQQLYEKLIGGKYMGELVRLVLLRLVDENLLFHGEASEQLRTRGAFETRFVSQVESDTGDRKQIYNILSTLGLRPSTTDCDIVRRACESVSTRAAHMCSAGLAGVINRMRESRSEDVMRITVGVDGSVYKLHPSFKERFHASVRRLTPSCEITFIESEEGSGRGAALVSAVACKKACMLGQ

[2] = biological target: T1, Hexokinase-4; assay: Activation of purified human glucokinase isoform 3 (13 to 466 aa) using 5 mM glucose by spectrophotometry in presence of NAD+ and glucose 6-phosphate dehydrogenase
[3] = Extraction ratio in mouse liver microsomes at 1 uM up to 20 mins by LC-MS/MS analysis; type: ADME; conditions: read-out: ERH
[4] = Extraction ratio in human liver microsomes at 1 uM up to 20 mins by LC-MS/MS analysis; type: ADME; conditions: read-out: ERH

SMILES | EC50 ([1]; read-out: EC50) [nM] | EC50 [2] [nM] | EC50 [1] | hepatic extraction ratio at 20 min, 1 µM [3] | hepatic extraction ratio at 20 min, 1 µM [4]
CCc1ncccc1Oc1cc(Sc2ccccn2)cnc1NC=O | 41400 | 13200 |  |  | 
CCOC(=O)Nc1ncc(Sc2ccccn2)cc1Oc1cccnc1CC |  | > 50000 | Not Active |  | 
CCc1ncccc1Oc1cc(Sc2ccccn2)cnc1NC(=O)NCCO | 2840 | 2120 |  |  | 
CCc1ncccc1Oc1cc(Sc2ccccn2)cnc1NC(=O)NCc1ccccn1 | 3990 | 1620 |  |  | 
CCc1ncccc1Oc1cc(Sc2ccccn2)cnc1NC(=O)NCc1cccnc1 | 1970 | 758 |  |  | 
CCc1ncccc1Oc1cc(Sc2ccccn2)cnc1NC(=O)NCc1ccncc1 | 1160 | 952 |  |  | 
CCc1ncccc1Oc1cc(Sc2ccccn2)cnc1NC(=O)NCc1ccccc1O | 5850 | 393 |  |  | 
CCc1ncccc1Oc1cc(Sc2ccccn2)cnc1NC(=O)NCc1cccc(O)c1 | 2830 | 276 |  |  | 

The next lines start with the values.

EC50 ([1]; read-out: EC50) [nM] | EC50 [2] [nM] | EC50 [1] | hepatic extraction ratio at 20 min, 1 µM [3] | hepatic extraction ratio at 20 min, 1 µM [4] | SMILES
 | > 50000 | Not Active |  |  | CCc1ncccc1Oc1cc(Sc2ccccn2)cnc1NC(C)=O
547 | 203 |  |  |  | CCNC(=O)Nc1ncc(Sc2ccccn2)cc1Oc1cccnc1CC
231 | 88 |  | 0.85 | 0.75 | CCc1ncccc1Oc1cc(Sc2ccccn2)cnc1NC(=O)NC
4480 | 1730 |  |  |  | CCc1ncccc1Oc1cc(Sc2ccccn2)cnc1NC(N)=O
 | > 50000 | Not Active |  |  | CCc1ncccc1Oc1cc(Sc2ccccn2)cnc1NC(=O)NC(C)C
